Test results: patent US20080138284A1, “Novel Peptides That Promote Lipid Efflux” (Lipid Sciences, Inc., priority 2006, published 2008)
Ends that are not written are not given here.

What was measured:
[1] = system: HeLa cells transfected with only a hygromycin-resistant control plasmid (control cells); test: Cholesterol and phospholipid efflux from control HeLa cells (incl. time course); type: cell-based, human; conditions: for cholesterol efflux from control cells, time course: rate compared with ABCA1 cells
Protocol: HeLa cells stably transfected with human ABCA1 cDNA (ABCA1 cells) and HeLa cells transfected with only a hygromycin-resistant control plasmid (control cells) are produced and grown in α-modified Eagle's medium (aMEM) plus 10% fetal calf serum, as described by Remaley et al. (Biochem. Biophys. Res. Commun. 280:818-823, 2001). Cholesterol and phospholipid efflux is performed for 18 hours on noncholesterol-loaded cells radiolabeled with either cholesterol or choline (Remaley et al., Arterioscler. Thromb. Vasc. Biol. 17:1813-1821, 1997). Percentage efflux is calculated after subtracting the radioactive counts in the blank media (aMEM plus 1 mg/ml of BSA), and expressed as the percent of total radioactive counts removed from the cells during the efflux period.
ABCA1 cells are used to assess the ability of apoA-I and synthetic peptides to efflux lipid from cells. […] The peptides of the present invention efflux approximately 2- to 4-fold more cholesterol and phospholipid from ABCA1 cells than from control cells. Both the peptides of the present invention and apoA-I began to show saturation for lipid efflux at approximately the same protein concentration of 10 μg/ml.
Cholesterol efflux from ABCA1 cells to apoA-I is first detectable after 2 hours and increases throughout the 30 hour efflux period. […] Overall, the kinetics for cholesterol efflux to peptides of the present invention from ABCA1 cells is similar to that of apoA-I, except that cholesterol efflux is first detectable after 30 minutes.

[2] = system: apoE knockout mice on a chow diet and LDL receptor knockout mice on a western high fat diet; test: Aortic arch atherosclerosis in knockout mice; type: in vivo, mouse; conditions: 2 mg/kg to 50 mg/kg iv or ip, 2 to 3 times per week, approximately 6 weeks
Protocol: The ability of the peptides of the present invention and associated fragments are tested in apoE knockout mice on a chow diet and LDL receptor knockout mice on a western high fat diet to determine the effect of these peptides to reduce atherosclerosis in a mouse model system. One or more of the peptides of the present invention, in a range of concentration of 2 mg/kg to 50 mg/kg, is injected intravenously (iv) or intraperitoneally (ip) 2 to 3 times per week over a period of approximately 6 weeks. Aortic atherosclerosis is quantitated in the aortic arch before administration of the peptides and after the 6 week period of administration. (Wu et al., J. Biol. Chem.; 2004: 279, 22913-22925).

Row | Substance | removal of cholesterol and phospholipids from control cells relative to Apo A-I [1] | cholesterol efflux from control cells, time course [1] | atherosclerosis in the aortic arch [2]
1 | Ac-Gly Glu Glu Met Arg Asp Arg Ala Arg Ala His Val Asp Ala Leu Arg Thr His Ala Lys Pro Val Leu Leu Glu Ser Phe Lys Val Ser Phe Leu Ser Ala Leu Glu Glu Tyr Thr Lys Lys-NH2 (Ac-GEEMRDRARAHVDALRTHAKPVLLESFKVSFLSALEEYTKK-NH2) [SEQ ID NO:354] | comparable to or more than that removed by Apo A-I | promote cholesterol efflux from control cells but at a lower rate | reduce atherosclerosis in the aortic arch
2 | Ac-Leu Glu Ser Ala Lys Val Ser Ala Leu Ser Ala Leu Glu Glu Ala Thr Lys Lys Ala Lys Pro Val Leu Leu Glu Ser Phe Lys Val Ser Phe Leu Ser Ala Leu Glu Glu Tyr Thr Lys Lys-NH2 (Ac-LESAKVSALSALEEATKKAKPVLLESFKVSFLSALEEYTKK-NH2) [SEQ ID NO:372] | comparable to or more than that removed by Apo A-I | promote cholesterol efflux from control cells but at a lower rate | reduce atherosclerosis in the aortic arch
3 | Ac-Ser Asp Glu Leu Arg Gln Arg Leu Ala Ala Arg Leu Glu Ala Leu Lys Glu Asn Ala Lys Pro Val Leu Leu Glu Ser Phe Lys Val Ser Phe Leu Ser Ala Leu Glu Glu Tyr Thr Lys Lys-NH2 (Ac-SDELRQRLAARLEALKENAKPVLLESFKVSFLSALEEYTKK-NH2) [SEQ ID NO:355] | comparable to or more than that removed by Apo A-I | promote cholesterol efflux from control cells but at a lower rate | reduce atherosclerosis in the aortic arch
4 | GEEMRDRARAHVDALRTHAKPVLLESFKVSFLSALEEYTKK [SEQ ID NO:72] | comparable to or more than that removed by Apo A-I | promote cholesterol efflux from control cells but at a lower rate | reduce atherosclerosis in the aortic arch
5 | LESAKVSALSALEEATKKAKPVLLESFKVSFLSALEEYTKK [SEQ ID NO:89] | comparable to or more than that removed by Apo A-I | promote cholesterol efflux from control cells but at a lower rate | reduce atherosclerosis in the aortic arch
6 | SDELRQRLAARLEALKENAKPVLLESFKVSFLSALEEYTKK [SEQ ID NO:80] | comparable to or more than that removed by Apo A-I | promote cholesterol efflux from control cells but at a lower rate | reduce atherosclerosis in the aortic arch
